Assay results from ChEMBL document CHEMBL3414527, “Engineering potent and selective analogues of GpTx-1, a tarantula venom peptide antagonist of the Na(V)1.7 sodium channel” (J Med Chem, 2015).
pIC50: −log10 of the molar value. Bridge positions count the residues as written; N and C are the ends. Peptide text beside a SMILES is read from it.

Legend:
[1] = target: Sodium channel protein type 5 subunit alpha (Homo sapiens, UniProt Q14524); experiment: Inhibition of human NaV1.5 at -140 mV holding potential by whole-cell patch clamp assay
Chain of Sodium channel protein type 5 subunit alpha (Q14524 whole entry): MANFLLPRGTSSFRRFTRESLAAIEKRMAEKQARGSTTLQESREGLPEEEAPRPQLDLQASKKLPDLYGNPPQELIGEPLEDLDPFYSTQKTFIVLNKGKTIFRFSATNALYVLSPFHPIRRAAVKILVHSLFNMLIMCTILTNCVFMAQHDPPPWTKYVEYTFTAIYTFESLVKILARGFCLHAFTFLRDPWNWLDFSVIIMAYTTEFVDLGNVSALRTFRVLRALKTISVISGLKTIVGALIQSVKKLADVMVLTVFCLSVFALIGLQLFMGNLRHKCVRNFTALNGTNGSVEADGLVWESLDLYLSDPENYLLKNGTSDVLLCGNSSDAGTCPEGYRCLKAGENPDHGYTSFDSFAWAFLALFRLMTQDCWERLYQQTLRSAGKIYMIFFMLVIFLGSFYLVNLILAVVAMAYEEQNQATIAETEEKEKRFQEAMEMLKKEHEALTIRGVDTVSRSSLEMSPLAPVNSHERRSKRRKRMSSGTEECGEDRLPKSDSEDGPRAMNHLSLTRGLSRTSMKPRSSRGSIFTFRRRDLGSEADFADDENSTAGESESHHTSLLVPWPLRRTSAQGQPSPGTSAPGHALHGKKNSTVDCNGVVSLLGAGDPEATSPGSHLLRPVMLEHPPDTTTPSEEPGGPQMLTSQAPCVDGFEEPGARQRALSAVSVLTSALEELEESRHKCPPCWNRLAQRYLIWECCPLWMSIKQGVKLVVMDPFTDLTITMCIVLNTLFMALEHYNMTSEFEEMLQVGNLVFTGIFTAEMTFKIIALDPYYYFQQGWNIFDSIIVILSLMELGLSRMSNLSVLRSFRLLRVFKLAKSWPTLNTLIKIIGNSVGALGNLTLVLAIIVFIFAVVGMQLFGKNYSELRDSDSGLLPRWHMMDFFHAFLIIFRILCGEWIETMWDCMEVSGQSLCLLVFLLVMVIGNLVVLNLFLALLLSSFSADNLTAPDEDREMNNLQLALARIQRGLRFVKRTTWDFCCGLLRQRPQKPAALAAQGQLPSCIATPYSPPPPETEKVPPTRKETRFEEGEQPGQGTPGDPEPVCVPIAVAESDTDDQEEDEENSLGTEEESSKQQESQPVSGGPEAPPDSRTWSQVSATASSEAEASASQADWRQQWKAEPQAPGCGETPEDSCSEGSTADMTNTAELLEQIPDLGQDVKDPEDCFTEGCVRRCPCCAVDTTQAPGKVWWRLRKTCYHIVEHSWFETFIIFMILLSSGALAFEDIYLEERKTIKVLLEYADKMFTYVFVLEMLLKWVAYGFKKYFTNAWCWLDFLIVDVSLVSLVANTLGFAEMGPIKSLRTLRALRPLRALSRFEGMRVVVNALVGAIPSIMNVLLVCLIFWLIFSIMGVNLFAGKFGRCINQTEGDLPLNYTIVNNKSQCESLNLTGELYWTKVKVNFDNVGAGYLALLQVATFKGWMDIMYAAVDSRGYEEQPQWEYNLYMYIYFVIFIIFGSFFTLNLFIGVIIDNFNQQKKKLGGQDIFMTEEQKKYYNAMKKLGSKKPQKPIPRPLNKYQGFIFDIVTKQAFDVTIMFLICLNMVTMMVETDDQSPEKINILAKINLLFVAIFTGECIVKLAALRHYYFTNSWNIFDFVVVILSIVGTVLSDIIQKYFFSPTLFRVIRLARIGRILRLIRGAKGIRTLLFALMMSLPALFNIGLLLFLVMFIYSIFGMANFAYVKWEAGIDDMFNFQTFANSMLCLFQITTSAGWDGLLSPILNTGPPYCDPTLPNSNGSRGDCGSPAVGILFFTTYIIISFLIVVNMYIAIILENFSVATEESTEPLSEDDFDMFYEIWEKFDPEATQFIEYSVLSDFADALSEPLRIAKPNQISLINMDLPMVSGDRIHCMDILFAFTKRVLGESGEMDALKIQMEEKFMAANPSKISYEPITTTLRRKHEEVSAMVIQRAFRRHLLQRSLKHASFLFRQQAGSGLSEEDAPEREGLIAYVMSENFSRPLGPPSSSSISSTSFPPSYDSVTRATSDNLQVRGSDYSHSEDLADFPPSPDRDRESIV

[2] = Stability in human plasma assessed as intact compound remaining at 37 degC after 24 hrs by LC-MS method; type: ADME, cell-free; details: read-out: Stability
[3] = target: Sodium channel protein type 9 subunit alpha (Mus musculus, UniProt Q62205); experiment: Inhibition of NaV1.7 in C57BL/6 mouse DRG neurons at -140 mV holding potential by whole-cell patch clamp assay
[4] = target: T1, Sodium channel protein type 9 subunit alpha (Homo sapiens, UniProt Q15858); experiment: Inhibition of human NaV1.7 by patchXpress 700A electrophysiology method
T1 sequence (Q15858 whole entry): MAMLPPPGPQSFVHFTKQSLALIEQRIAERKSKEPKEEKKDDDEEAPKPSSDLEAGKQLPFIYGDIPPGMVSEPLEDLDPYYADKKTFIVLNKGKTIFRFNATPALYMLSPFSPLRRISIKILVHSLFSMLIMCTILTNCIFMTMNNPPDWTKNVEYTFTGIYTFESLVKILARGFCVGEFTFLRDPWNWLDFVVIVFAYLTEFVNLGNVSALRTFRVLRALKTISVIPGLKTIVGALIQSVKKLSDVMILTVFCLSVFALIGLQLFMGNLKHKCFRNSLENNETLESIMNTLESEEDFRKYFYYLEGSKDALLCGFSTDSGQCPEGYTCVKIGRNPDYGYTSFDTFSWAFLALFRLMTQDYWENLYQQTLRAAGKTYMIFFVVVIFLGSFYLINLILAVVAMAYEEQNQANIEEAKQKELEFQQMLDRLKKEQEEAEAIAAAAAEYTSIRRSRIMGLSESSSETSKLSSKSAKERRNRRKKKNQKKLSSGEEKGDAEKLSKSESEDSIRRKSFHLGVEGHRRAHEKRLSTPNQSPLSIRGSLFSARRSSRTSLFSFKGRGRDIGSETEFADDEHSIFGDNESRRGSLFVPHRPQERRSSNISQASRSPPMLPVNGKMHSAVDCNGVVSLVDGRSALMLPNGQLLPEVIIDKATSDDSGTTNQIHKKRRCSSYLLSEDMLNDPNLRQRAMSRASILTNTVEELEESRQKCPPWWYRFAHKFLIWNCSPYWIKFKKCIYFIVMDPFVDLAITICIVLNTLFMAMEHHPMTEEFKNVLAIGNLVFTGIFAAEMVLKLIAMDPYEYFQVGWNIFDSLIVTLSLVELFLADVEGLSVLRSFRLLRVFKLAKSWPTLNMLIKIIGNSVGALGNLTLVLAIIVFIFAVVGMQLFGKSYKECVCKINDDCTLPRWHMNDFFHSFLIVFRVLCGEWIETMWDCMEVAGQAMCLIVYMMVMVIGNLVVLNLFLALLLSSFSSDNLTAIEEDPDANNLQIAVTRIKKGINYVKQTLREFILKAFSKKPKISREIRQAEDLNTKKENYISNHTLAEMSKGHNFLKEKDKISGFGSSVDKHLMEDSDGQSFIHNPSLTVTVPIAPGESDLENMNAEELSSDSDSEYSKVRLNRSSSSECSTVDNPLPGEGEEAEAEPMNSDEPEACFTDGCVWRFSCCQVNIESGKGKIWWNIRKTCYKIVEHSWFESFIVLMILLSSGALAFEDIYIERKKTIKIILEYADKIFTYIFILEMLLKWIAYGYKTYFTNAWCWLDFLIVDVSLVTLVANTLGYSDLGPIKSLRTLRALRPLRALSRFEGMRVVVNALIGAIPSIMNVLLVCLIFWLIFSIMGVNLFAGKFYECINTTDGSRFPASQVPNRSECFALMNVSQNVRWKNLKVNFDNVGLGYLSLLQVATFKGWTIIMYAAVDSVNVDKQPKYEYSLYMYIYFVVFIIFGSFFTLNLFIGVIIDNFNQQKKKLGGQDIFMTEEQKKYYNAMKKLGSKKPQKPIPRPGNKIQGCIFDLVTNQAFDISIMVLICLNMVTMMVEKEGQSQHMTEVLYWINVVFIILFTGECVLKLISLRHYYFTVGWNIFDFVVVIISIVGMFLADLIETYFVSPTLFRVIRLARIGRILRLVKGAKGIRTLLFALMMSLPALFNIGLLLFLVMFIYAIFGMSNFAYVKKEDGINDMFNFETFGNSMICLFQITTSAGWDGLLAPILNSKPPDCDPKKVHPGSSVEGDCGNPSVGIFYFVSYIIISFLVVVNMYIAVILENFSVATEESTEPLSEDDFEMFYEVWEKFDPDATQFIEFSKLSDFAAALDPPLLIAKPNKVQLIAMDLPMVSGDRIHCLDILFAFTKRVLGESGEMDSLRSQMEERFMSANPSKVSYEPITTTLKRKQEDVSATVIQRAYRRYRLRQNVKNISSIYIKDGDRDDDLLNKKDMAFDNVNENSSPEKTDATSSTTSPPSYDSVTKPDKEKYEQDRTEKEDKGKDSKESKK

[5] = Stability in mouse plasma assessed as intact compound remaining at 37 degC after 24 hrs by LC-MS method; type: ADME, cell-free; details: read-out: Stability
[6] = target: T1, Sodium channel protein type 9 subunit alpha; experiment: Inhibition of human NaV1.7 at -140 mV holding potential by whole-cell patch clamp assay

Structure (SMILES): CC[C@H](C)[C@@H]1NC(=O)[C@@H]2CSSC[C@@H]3NC(=O)[C@H](C(C)C)NC(=O)[C@H](CC(C)C)NC(=O)[C@H](CC(N)=O)NC(=O)[C@@H]4CCCN4C(=O)[C@H](CCCNC(=N)N)NC(=O)[C@H](CSSC[C@H](NC(=O)[C@@H](N)CC(=O)O)C(=O)N[C@@H](CC(C)C)C(=O)NCC(=O)N[C@@H](C)C(=O)N[C@@H](CCSC)C(=O)N[C@@H](CCCNC(=N)N)C(=O)N[C@@H](CCCCN)C(=O)N2)NC(=O)[C@H](CSSC[C@@H](C(=O)N[C@@H](CCCCN)C(=O)N[C@@H](Cc2ccc(O)cc2)C(=O)N[C@H](C(=O)N[C@@H](Cc2ccccc2)C(N)=O)C(C)C)NC(=O)[C@H](Cc2c[nH]c4ccccc24)NC(=O)[C@H](CCCCN)NC(=O)[C@H](Cc2cnc[nH]2)NC(=O)[C@H]([C@@H](C)O)NC(=O)[C@H](CCCNC(=N)N)NC(=O)[C@H](CO)NC3=O)NC(=O)[C@H](CCCCN)NC(=O)[C@H](CC(=O)O)NC(=O)[C@H](CC(N)=O)NC(=O)[C@H](CC(=O)O)NC(=O)[C@@H]2CCCN2C1=O (H-DCLGAMRKCIPDNDKCCRPNLVCSRTHKWCKYVF-NH2; disulfide 2-17, 9-23, 16-30)
- pIC50 [1]: 4.57
- remaining at 24 h [2]: 99%
- pIC50 [3]: 7.65
- pIC50 [4]: 7.57
- remaining at 24 h [5]: 99%
- pIC50 [6]: 6.20
